pIC50, pKi: −log10 of the molar value. Converted amounts (≈) assume the structure as drawn.
Tests used:
[1] = biological target: Collagenase 3 (Homo sapiens, UniProt P45452); assay: Inhibition of full length human recombinant MMP13 using MCA-Arg-Pro-Leu-Gly-Leu-Dpa-Ala-Arg-Glu-Arg-NH2 as substrate preincubated for 60 mins followed by substrate addition by fluorescence assay
[2] = biological target: CYP2C9 (Homo sapiens, UniProt P11712); assay: Inhibition of CYP2C9 in human liver microsomes assessed as reduction of diclofenac metabolism at 3 uM after 8 mins; assay type: ADME; details: probe diclofenac
Chain of CYP2C9 (P11712 whole entry, the tested form may be a part): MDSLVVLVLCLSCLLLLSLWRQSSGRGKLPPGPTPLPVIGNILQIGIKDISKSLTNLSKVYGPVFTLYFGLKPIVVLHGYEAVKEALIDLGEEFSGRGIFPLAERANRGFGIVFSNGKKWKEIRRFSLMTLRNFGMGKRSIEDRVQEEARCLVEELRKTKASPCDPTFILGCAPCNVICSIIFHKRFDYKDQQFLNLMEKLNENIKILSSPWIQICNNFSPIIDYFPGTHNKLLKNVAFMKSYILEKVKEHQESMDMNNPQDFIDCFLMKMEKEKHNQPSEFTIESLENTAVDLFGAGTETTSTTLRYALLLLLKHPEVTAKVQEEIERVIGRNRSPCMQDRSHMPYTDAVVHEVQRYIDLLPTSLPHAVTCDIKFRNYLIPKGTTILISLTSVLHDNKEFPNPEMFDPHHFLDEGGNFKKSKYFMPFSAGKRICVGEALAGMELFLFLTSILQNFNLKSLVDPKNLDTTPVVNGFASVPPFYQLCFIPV

[3] = biological target: Stromelysin-1 (Homo sapiens, UniProt P08254); assay: Inhibition of MMP3 (unknown origin) catalytic domain using MCA-Arg-Pro-Leu-Gly-Leu-Dpa-Ala-Arg-Glu-Arg-NH2 as substrate preincubated for 60 mins followed by substrate addition by fluorescence assay
Chain of Stromelysin-1 (P08254 whole entry, the tested form may be a part): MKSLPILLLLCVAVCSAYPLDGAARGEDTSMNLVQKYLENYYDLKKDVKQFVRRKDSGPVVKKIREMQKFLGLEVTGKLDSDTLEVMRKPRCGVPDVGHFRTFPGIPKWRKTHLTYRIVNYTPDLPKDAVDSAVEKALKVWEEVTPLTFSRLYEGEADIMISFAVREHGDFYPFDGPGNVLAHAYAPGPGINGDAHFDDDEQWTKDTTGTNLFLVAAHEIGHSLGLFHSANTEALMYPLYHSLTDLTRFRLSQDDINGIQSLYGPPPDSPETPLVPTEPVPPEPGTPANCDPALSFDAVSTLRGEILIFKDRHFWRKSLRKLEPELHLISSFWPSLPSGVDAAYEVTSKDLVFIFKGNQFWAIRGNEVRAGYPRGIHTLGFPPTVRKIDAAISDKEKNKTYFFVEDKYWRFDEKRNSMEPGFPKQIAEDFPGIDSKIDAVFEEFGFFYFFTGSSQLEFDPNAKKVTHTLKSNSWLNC

[4] = Intrinsic clearance in human liver microsomes measured over 40 mins by HPLC/MS analysis; assay type: ADME; details: read-out: CLH
[5] = Clearance in Sprague-Dawley rat at 1 mg/kg, iv administered as bolus dose by LC-MS/MS analysis; assay type: ADME, organism-based; details: in vivo
[6] = Oral bioavailability in Sprague-Dawley rat at 1 mg/kg; assay type: ADME, organism-based; details: in vivo
[7] = Plasma protein binding in human; assay type: ADME, cell-free; details: read-out: PPB (converted)
[8] = Thermodynamic solubility of the compound in crystalline solid form in phosphate buffer at pH 7.4; assay type: physicochemical; details: read-out: Therm_solubility
[9] = test system: Canis familiaris; assay: Free AUC in beagle dog at 1 mg/kg, po administered as cassette dosing; assay type: ADME, organism-based, Canis lupus familiaris; details: in vivo
[10] = test system: Canis familiaris; assay: Free Cmax in beagle dog at 1 mg/kg, po administered as cassette dosing; assay type: ADME, organism-based, Canis lupus familiaris; details: in vivo
[11] = Plasma protein binding in beagle dog at 1 mg/kg, po administered as cassette dosing; assay type: ADME, organism-based, Canis lupus familiaris; details: read-out: PPB (converted)
[12] = Intrinsic clearance in rat liver microsomes measured over 40 mins by HPLC/MS analysis; assay type: ADME; details: read-out: CLH
[13] = physchem; details: buffer, pH 7.4
[14] = biological target: Matrix metalloproteinase-14 (Homo sapiens, UniProt P50281); assay: Inhibition of MMP14 (unknown origin) catalytic domain using MCA-Arg-Pro-Leu-Gly-Leu-Dpa-Ala-Arg-Glu-Arg-NH2 as substrate preincubated for 60 mins followed by substrate addition by fluorescence assay

| Structure (SMILES) | pKi [1] | inhibition at 8 min, 3 µM [2] | pKi [3] | also measured |
| --- | --- | --- | --- | --- |
| Cc1cc(-c2nnn(C[C@H]3CC[C@H](CO)CC3)n2)cc(C(=O)NCc2ccc(F)c(Cl)c2)n1 | 8.40 | 90% |  |  |
| COc1cc(CNC(=O)c2cc(-c3nnn(C[C@@H]4CO[C@@H](CO)CO4)n3)nc(C)n2)ccc1F | 8.38 |  | < 5.00 | microsomal CLint [4]: < 8 µL/min/mg; clearance [5]: 9.8 mL/min/kg; bioavailability [6]: 113% |
| Cc1cc(-c2nnn(C[C@H]3CC[C@H](CO)CC3)n2)cc(C(=O)NCc2ccc(F)c(C(F)(F)F)c2)n1 | 8.20 | 90% |  |  |
| COc1cccc(CNC(=O)c2cc(-c3nnn(CC4CCN(C(C)=O)CC4)n3)cc(C)n2)c1 | 7.78 |  | < 5.00 |  |
| Cc1cccc(CNC(=O)c2cc(-c3nnn(C[C@H]4CC[C@H](CO)CC4)n3)cc(C)n2)c1 | 7.33 | 93% |  |  |
| Cc1cc(-c2nnn(C[C@H]3CC[C@H](CO)CC3)n2)cc(C(=O)NCc2ccc(F)cc2)n1 | 7.48 | 56% |  |  |
| COc1cccc(CNC(=O)c2cc(-c3nnn(CC4CCCOC4)n3)cc(C)n2)c1 (racemic) | 7.78 |  | < 5.00 |  |
| Cc1cc(-c2nnn(C[C@H]3CC[C@H](CO)CC3)n2)cc(C(=O)NCc2ccc(F)c(C)c2)n1 | 8.42 | 96% |  |  |
| Cc1cc(-c2nnn(C[C@H]3CC[C@H](CO)CC3)n2)cc(C(=O)NCc2cccc(Cl)c2)n1 | 7.41 |  |  |  |
| COc1cccc(CNC(=O)c2cc(-c3nnn(C[C@H]4CC[C@H](C(N)=O)CC4)n3)cc(C)n2)c1 | 7.67 |  |  |  |
| COc1cccc(CNC(=O)c2cc(-c3nnn(C[C@H]4CO[C@H](CO)CO4)n3)nc(C)n2)c1 (racemic) | 8.24 |  | < 5.00 | fraction unbound [7]: 0.31; microsomal CLint [4]: < 8 µL/min/mg; clearance [5]: 10.6 mL/min/kg; solubility thermodynamic [8]: 237 µM (≈ 108 µg/mL); fAUC [9]: 3.24 µM·h; bioavailability [6]: 65%; fCmax [10]: 580 nM; fraction unbound [11]: 0.37 |
| COc1cc(CNC(=O)c2cc(-c3nnn(C[C@H]4CC[C@H](CO)CC4)n3)cc(C)n2)ccc1F | 8.92 | 39% |  |  |
| COc1cccc(CNC(=O)c2cc(-c3nnn(C[C@H]4CC[C@@H](NS(C)(=O)=O)CC4)n3)cc(C)n2)c1 | 8.09 |  | < 5.00 |  |
| COc1cccc(CNC(=O)c2cc(-c3nnn(CC4CCCCC4)n3)cc(C)n2)c1 | 7.47 |  | < 5.00 | microsomal CLint [4]: 41.7 µL/min/mg; clearance [5]: 63.5 mL/min/kg; microsomal CLint [12]: 98.5 µL/min/mg; logD [13]: 4.37 |
| Cc1cc(-c2nnn(C[C@H]3CC[C@H](CO)CC3)n2)cc(C(=O)NCc2cccc(C(F)(F)F)c2)n1 | 7.62 | 94% |  |  |
| COc1cccc(CNC(=O)c2cc(-c3nnn(CC4CCCCO4)n3)cc(C)n2)c1 (single isomer, unassigned; (-)) | 8.11 |  |  | microsomal CLint [4]: 53.1 µL/min/mg; clearance [5]: 54.5 mL/min/kg; microsomal CLint [12]: 192 µL/min/mg; logD [13]: 3.22 |
| CNC(=O)[C@@H](NC(=O)[C@H](CC(C)C)[C@H](O)C(=O)NO)C(C)(C)C |  |  |  | pIC50 [14]: 5.00 |
| COc1cccc(CNC(=O)c2cc(-c3nnn(CC4CCN(S(C)(=O)=O)CC4)n3)cc(C)n2)c1 | 8.24 |  | < 5.00 |  |
| COc1cccc(CNC(=O)c2cc(-c3nnn(C[C@H]4CC[C@H](C(=O)O)CC4)n3)cc(C)n2)c1 |  |  | < 5.00 |  |

— ChEMBL document CHEMBL3758105 (J Med Chem, 2016)
